Experimental data from patent US20240343727A1, “PYRIDAZINONE OR PYRIDINONE COMPOUNDS, PREPARATION METHODS AND USES THEREOF” (InventisBio Co., Ltd., priority 2021, published 2024).

Target: T1, PARP7 (Homo sapiens, UniProt Q7Z3E1)
T1 sequence (Q7Z3E1 1-657): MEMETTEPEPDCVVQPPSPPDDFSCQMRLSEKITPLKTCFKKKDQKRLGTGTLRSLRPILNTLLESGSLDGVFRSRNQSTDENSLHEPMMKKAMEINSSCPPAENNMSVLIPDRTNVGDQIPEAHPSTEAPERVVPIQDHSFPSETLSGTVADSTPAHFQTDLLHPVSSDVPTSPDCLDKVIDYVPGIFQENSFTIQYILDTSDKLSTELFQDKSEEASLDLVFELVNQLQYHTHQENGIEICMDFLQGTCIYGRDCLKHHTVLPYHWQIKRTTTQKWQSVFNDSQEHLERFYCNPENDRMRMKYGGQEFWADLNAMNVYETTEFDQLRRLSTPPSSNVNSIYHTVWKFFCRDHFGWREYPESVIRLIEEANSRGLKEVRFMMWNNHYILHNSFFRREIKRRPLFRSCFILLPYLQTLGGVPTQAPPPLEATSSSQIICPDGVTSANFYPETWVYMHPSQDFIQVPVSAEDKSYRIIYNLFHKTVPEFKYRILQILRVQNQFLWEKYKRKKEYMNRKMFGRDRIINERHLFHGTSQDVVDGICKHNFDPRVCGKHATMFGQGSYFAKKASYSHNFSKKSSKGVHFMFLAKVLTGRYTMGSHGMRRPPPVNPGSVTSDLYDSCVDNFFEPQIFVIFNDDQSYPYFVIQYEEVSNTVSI
Experiment: PARP7 TR-FRET assay (binding, displacement of biotinylated Probe A)
Settings: 6 nM PARP7, 2 nM Probe A, 25° C., 30 min
Experimental: Biological Assay Example A: PARP7 TR-FRET Assay
A time-resolved fluorescence energy transfer (TR-FRET) assay was used to test binding activity of compounds to PARP7. Two microliter test compound was added in 384-well plate. Reactions were performed in a 6 uL volume by adding 4 uL mixture of PARP7 and Probe A (a biotinylated probe binding to the PARP7: N-(6-(2-(4-((2-(6-oxo-5-(trifluoromethyl)-1,6-dihydropyridazin-4-yl) isoindolin-5-yl) oxy) piperidin-1-yl) acetamido) hexyl)-5-((3aS,4S,6aR)-2-oxohexahydro-1H-thieno [3,4-d]imidazol-4-yl) pentanamide, made as reported in WO2019212937A1) in assay buffer (20 mM HEPES pH 8.0, 100 mM NaCl, 0.1% BSA, 2 mM DTT and 0.002% Tween20). The final concentration of PARP7 and Probe A were 6 nM and 2 nM, incubating with test compounds at 25° C. for 30 min. Four microliter ULight-anti 6xHis and LANCE Eu-W1024 labeled streptavidin (PerkinElmer) were added with the final concentration of ULight-anti 6xHis and LANCE Eu-W1024 at 4 nM and 0.25 nM. The reaction mixture was incubated at 25° C. for 30 min. The plate was read on a Tecan Spark plate reader (excitation wavelength at 320 nm, emission wavelength at 615 nm and 665 nm with a 90 us delay. The ratio of the 665/615 nm emission was calculated for each well to the amount of complex of PARP7 and Probe A in each well was calculated. The 0.25% DMSO vehicle was used as control and no PARP7 well was as blank well. Inhibition rate is calculated with the formula of % inhibition=100-100*(TRFcmpd-TRFblank)/(TRFcontrol−TRFblank). Inhibition IC50 is calculated with the equation of Y=Bottom+ (Top-Bottom)/(1+10^((LogIC50−X) *Hill Slope))

Row | IC50 [nM] | Compound
1 | < 100 | COCC1CN(c2c(Oc3cccc(C(=O)N4CCN(c5ncc(C(F)(F)F)cn5)CC4)c3)n[nH]c(=O)c2C(F)(F)F)C1 [Compound 186]
2 | > 1000 | O=C(CC1CN(c2n[nH]c(=O)c3cc(OCC(F)F)ccc23)CCO1)N1CCN(c2ncc(C(F)(F)F)cn2)CC1 (single isomer, unassigned) [Compound 209]
3 | < 100 | CS(=O)(=O)c1ccc2c(c1)N(c1cc(C(F)(F)F)c(=O)[nH]n1)CC(CC(=O)N1CCN(c3ncc(C(F)(F)F)cn3)CC1)O2 (single isomer, unassigned) [Compound 206]
4 | 100 to 1000 | N#Cc1ccc2c(N3CCOC(CC(=O)N4CCN(c5ncc(C(F)(F)F)cn5)CC4)C3)n[nH]c(=O)c2c1 (stereo not drawn) [Compound 243]
5 | 100 to 1000 | N#Cc1ccc(N2CCN(C(=O)CC3CN(c4cc(C(F)(F)F)c(=O)[nH]n4)c4cc(C#N)ccc4O3)CC2)nc1 (single isomer, unassigned) [Compound 230]
6 | > 1000 | O=C(CC1CN(c2cc(C(F)(F)F)c(=O)[nH]n2)c2ccccc2O1)N1CCn2c(nnc2C(F)(F)F)C1 (single isomer, unassigned) [Compound 290]
7 | > 1000 | O=C(CC1CN(c2n[nH]c(=O)c3cc(OCC(F)F)ccc23)CCO1)N1CCN(c2ncc(C(F)(F)F)cn2)CC1 (single isomer, unassigned) [Compound 208]
8 | < 100 | O=C(CC1CN(c2n[nH]c(=O)c3ccc(N4CCCC4)cc23)CCO1)N1CCN(c2ncc(C(F)(F)F)cn2)CC1 (single isomer, unassigned) [Compound 258]
9 | < 100 | O=C(c1cccc(Oc2n[nH]c(=O)c(C(F)(F)F)c2NCC2CCOCC2)c1)N1CCN(c2ncc(C(F)(F)F)cn2)CC1 [Compound 203]
10 | < 100 | N#Cc1ccc(N2CCN(C(=O)CC3CN(c4cc(C(F)(F)F)c(=O)[nH]n4)c4cc(C(F)F)ccc4O3)CC2)nc1 (single isomer, unassigned) [Compound 328]
11 | < 100 | C#Cc1ccc2c(N3CCOC(CC(=O)N4CCN(c5ncc(C(F)(F)F)cn5)CC4)C3)n[nH]c(=O)c2c1 (single isomer, unassigned) [Compound 197]
12 | < 100 | CC(C)(O)c1cnc(N2CCN(C(=O)CC3CN(c4cc(C(F)(F)F)c(=O)[nH]n4)c4cc(F)ccc4O3)CC2)nc1 (single isomer, unassigned) [Compound 351]
13 | < 100 | N#Cc1ccc(N2CCN(C(=O)CC3CN(c4cc(C(F)(F)F)c(=O)[nH]n4)c4cc(C(F)F)ccc4O3)CC2)nc1 (single isomer, unassigned) [Compound 327]
14 | < 100 | C#Cc1cnc(N2CCN(C(=O)c3cccc(Oc4n[nH]c(=O)c(C(F)(F)F)c4N4CC5(CCCO5)C4)c3)CC2)nc1 [Compound 275]
15 | < 100 | O=C(C[C@@H]1CN(c2n[nH]c(=O)c3ccc(N4CC(F)C4)cc23)CCO1)N1CCN(c2ncc(C(F)(F)F)cn2)CC1 [Compound 207]
16 | < 100 | N#Cc1ccc2c(c1)N(c1cc(C(F)(F)F)c(=O)[nH]n1)CC(CC(=O)N1CCN(c3ccc(C(F)(F)F)cn3)CC1)O2 (single isomer, unassigned) [Compound 154]
17 | < 100 | CCOC1CN(c2c(Oc3cccc(C(=O)N4CCN(c5ncc(C(F)(F)F)cn5)CC4)c3)n[nH]c(=O)c2C(F)(F)F)C1 [Compound 214]
18 | < 100 | CN(C)CCNc1c(Oc2cccc(C(=O)N3CCN(c4ncc(C(F)(F)F)cn4)CC3)c2)n[nH]c(=O)c1C(F)(F)F [Compound 172]
19 | < 100 | O=C(c1cccc(Oc2n[nH]c(=O)c(C(F)(F)F)c2NC2CC(F)(F)C2)c1)N1CCN(c2ncc(C(F)(F)F)cn2)CC1 [Compound 167]
20 | < 100 | C[C@H]1CN(c2ncc(C(F)(F)F)cn2)CCN1C(=O)c1cccc(Oc2n[nH]c(=O)c(C(F)(F)F)c2N2CC3(CCO3)C2)c1 [Compound 255]
21 | < 100 | C#Cc1cnc(N2CCN(C(=O)c3cncc(Oc4n[nH]c(=O)c(C(F)(F)F)c4N4CC5(C4)CC(F)(F)C5)c3)CC2)nc1 [Compound 299]
22 | < 100 | COCc1ccc2c(c1)N(c1cc(C(F)(F)F)c(=O)[nH]n1)CC(CC(=O)N1CCN(c3ncc(C(F)(F)F)cn3)CC1)O2 (single isomer, unassigned) [Compound 267]
23 | < 100 | O=C(c1cncc(Oc2n[nH]c(=O)c(C(F)(F)F)c2N2CC3(C2)CC(F)(F)C3)c1)N1CCN(c2ccc(C(F)(F)F)cn2)CC1 [Compound 335]
24 | 100 to 1000 | O=C(CC1CN(c2cc(C(F)(F)F)c(=O)[nH]n2)c2ccccc2O1)N1CCN(c2ccc(Cl)cn2)CC1 (single isomer, unassigned) [Compound 260]

More lines, now with the values behind:

Row | Compound | IC50 [nM]
25 | O=C(CCO[C@H]1CCNc2c1n[nH]c(=O)c2C(F)(F)F)N1CCN(c2ncc(C(F)(F)F)cn2)CC1 (single isomer, unassigned) [Compound 7] | 100 to 1000
26 | O=C(CC1CN(c2n[nH]c(=O)c3cc(Cl)ccc23)CCO1)N1CCN(c2ncc(C(F)(F)F)cn2)CC1 (single isomer, unassigned) [Compound 99] | < 100
27 | CN1CC[C@@H](OCC(=O)N2CCN(c3ncc(C(F)(F)F)cn3)CC2)c2n[nH]c(=O)c(C(F)(F)F)c21 (single isomer, unassigned) [Compound 4] | < 100
28 | Cc1c(N2CCC[C@H]2CCC(=O)N2CCN(c3ncc(C(F)(F)F)cn3)CC2)n[nH]c(=O)c1C(F)(F)F [Compound 127] | < 100
29 | N#CC1(c2ccc3c(c2)N(c2cc(C(F)(F)F)c(=O)[nH]n2)CC(CC(=O)N2CCN(c4ncc(C(F)(F)F)cn4)CC2)O3)CC1 (single isomer, unassigned) [Compound 137] | < 100
30 | Cc1c(Oc2cccc(C(=O)N3CCN(c4ncc(C(F)(F)F)s4)CC3)c2)n[nH]c(=O)c1C(F)(F)F [Compound 66] | < 100
31 | O=C(CC1CN(c2cc(C(F)(F)F)c(=O)[nH]n2)c2cc(Cl)ccc2O1)N1CCN(c2cnc(C(F)(F)F)cn2)CC1 (single isomer, unassigned) [Compound 143] | < 100
32 | C[C@@H]1CN(C(=O)CC2CN(c3cc(C(F)(F)F)c(=O)[nH]n3)c3cc(C#N)ccc3O2)CCN1c1ncc(Cl)cn1 (single isomer, unassigned) [Compound 141] | < 100
33 | O=C(COC1CCOc2c1n[nH]c(=O)c2C1CC1)N1CCN(c2ncc(C(F)(F)F)cn2)CC1 (single isomer, unassigned) [Compound 128] | < 100
34 | O=C(C[C@@H]1CCCN1c1n[nH]c(=O)c2ccccc12)N1CCN(c2ncc(C(F)(F)F)cn2)CC1 [Compound 47] | > 1000
35 | O=C(CC1CN(c2n[nH]c(=O)c3ccc(C4CC4)cc23)CCO1)N1CCN(c2ncc(C(F)(F)F)cn2)CC1 (single isomer, unassigned) [Compound 103] | < 100
36 | O=C(CC1CN(c2n[nH]c(=O)c3cc(Cl)ccc23)CCO1)N1CCN(c2ncc(C(F)(F)F)cn2)CC1 (single isomer, unassigned) [Compound 121] | 100 to 1000
37 | CN1C[C@H](OCC(=O)N2CCN(c3ncc(C(F)(F)F)cn3)CC2)c2n[nH]c(=O)c3cc(F)cc1c23 (single isomer, unassigned) [Compound 13] | 100 to 1000
38 | O=C(COC1CCOc2c1n[nH]c(=O)c2C(F)(F)F)N1CCN(c2ncc(C(F)(F)F)cn2)CC1 (single isomer, unassigned) [Compound 11] | > 1000
39 | O=C(CC1CN(c2n[nH]c(=O)c3c(F)cccc23)CCO1)N1CCN(c2ncc(C(F)(F)F)cn2)CC1 (single isomer, unassigned) [Compound 94] | < 100
40 | O=C(OC1CN(c2cc(C(F)(F)F)c(=O)[nH]n2)CCC1(F)F)N1CCN(c2ncc(C(F)(F)F)cn2)CC1 (single isomer, unassigned) [Compound 81] | < 100
41 | C[C@@H]1CN(c2n[nH]c(=O)c3cccc(F)c23)C[C@H](CC(=O)N2CCN(c3ncc(C(F)(F)F)cn3)CC2)O1 (stereo in doubt) [Compound 119] | > 1000
42 | O=C(c1cc(Oc2n[nH]c(=O)c(C(F)(F)F)c2N2CC3(C2)CC(F)(F)C3)ccn1)N1CCN(c2ccc(C(F)(F)F)cn2)CC1 [Compound 148] | < 100
